Source: BigSolDB 2.1

Molecule `CCOc1ccc2ccccc2c1C(=O)O` has a solubility (mole fraction) (in ethanol, 278.15 K) of 0.0268, a solubility (mole fraction) (in ethanol, 283.15 K) of 0.0325 and a solubility (mole fraction) (in ethanol, 288.15 K) of 0.0392. The solubility (mole fraction) (in ethanol, 293.15 K) was 0.0469, the solubility (mole fraction) (in ethanol, 298.15 K) was 0.0565 and the solubility (mole fraction) (in ethanol, 303.15 K) was 0.0688. It also gave a solubility (mole fraction) (in ethanol, 308.15 K) of 0.0836, a solubility (mole fraction) (in ethanol, 313.15 K) of 0.101 and a solubility (mole fraction) (in ethanol, 318.15 K) of 0.119. The solubility (mole fraction) (in ethanol, 323.15 K) was 0.136, the solubility (mole fraction) (in methanol, 278.15 K) was 0.0304 and the solubility (mole fraction) (in methanol, 283.15 K) was 0.037. For the same molecule, the solubility (mole fraction) (in methanol, 288.15 K) was 0.0443, the solubility (mole fraction) (in methanol, 293.15 K) was 0.0552 and the solubility (mole fraction) (in methanol, 298.15 K) was 0.0671. The solubility (mole fraction) (in methanol, 303.15 K) was 0.0821, the solubility (mole fraction) (in methanol, 308.15 K) was 0.0951 and the solubility (mole fraction) (in methanol, 313.15 K) was 0.114. For the same molecule, the solubility (mole fraction) (in methanol, 318.15 K) was 0.134, the solubility (mole fraction) (in methanol, 323.15 K) was 0.151 and the solubility (mole fraction) (in n-propanol, 278.15 K) was 0.0212. For the same molecule, the solubility (mole fraction) (in n-propanol, 283.15 K) was 0.0236, the solubility (mole fraction) (in n-propanol, 288.15 K) was 0.0283 and the solubility (mole fraction) (in n-propanol, 293.15 K) was 0.0345. It also gave a solubility (mole fraction) (in n-propanol, 298.15 K) of 0.0424, a solubility (mole fraction) (in n-propanol, 303.15 K) of 0.0511 and a solubility (mole fraction) (in n-propanol, 308.15 K) of 0.0632. The solubility (mole fraction) (in n-propanol, 313.15 K) was 0.0779, the solubility (mole fraction) (in n-propanol, 318.15 K) was 0.092 and the solubility (mole fraction) (in n-propanol, 323.15 K) was 0.114.
